Data reported in patent US6410584B1, “Method for inhibiting neoplastic cells with indole derivatives” (Cell Pathways, Inc., priority 1998, dated 2002).

Structure (SMILES) | melting point
CCCCCS(=O)(=O)NC(=O)c1ccc2[nH]c(C)c(Cc3ccc(OCc4ccccc4)cc3)c2c1 [Compound 100, 3-(4-benzyloxybenzyl)-2-methyl-5-(1-pentanesulfonylcarbamoyl)indole] | 180 to 184 °C
CCCCS(=O)(=O)NC(=O)c1ccc2[nH]cc(Cc3ccc(Cl)cc3Cl)c2c1 [Compound 48, 5-(1-butanesulfonylcarbamoyl)-3-(2,4-dichlorobenzyl)indole] | 165.5 to 166.2 °C
CCCCS(=O)(=O)NC(=O)c1ccc2c(Cc3ccc(Cl)cc3Cl)c(C)[nH]c2c1 [Compound 90, 6-(1-butanesulfonylcarbamoyl)-3-(2,4-dichlorobenzyl)-2-methylindole] | 249 to 250 °C
CCCCS(=O)(=O)NC(=O)c1ccc2c(C)c(Cc3ccc(Cl)cc3Cl)[nH]c2c1 [Compound 121, 6-(1-butanesulfonylcarbamoyl)-2-(2,4-dichlorobenzyl)-3-methylindole] | 215.5 to 216.1 °C
Cc1[nH]c2ccc(C(=O)NS(=O)(=O)c3ccccc3)cc2c1Cc1ccc(Cl)cc1Cl [Compound 93, 5-(benzenesulfonylcarbamoyl)-3-(2,4-dichlorobenzyl)-2-methylindole] | 244 to 245 °C
CCCS(=O)(=O)NC(=O)c1ccc2[nH]c(C)c(Cc3ccc(Cl)cc3Cl)c2c1 [Compound 91, 3-(2,4-dichlorobenzyl)-2-methyl-5-(1-propanesulfonylcarbamoyl)indole] | 161 to 163 °C
CCCCCS(=O)(=O)NC(=O)c1ccc2[nH]c(C)c(Cc3ccc(-c4ccccc4)cc3)c2c1 [Compound 95, 3-(biphenyl-4-ylmethyl)-2-methyl-5-(1-pentanesulfonylcarbamoyl)indole] | 189 to 190 °C
CCCCCS(=O)(=O)NC(=O)c1ccc2[nH]c(CCC)c(Cc3ccc(Cl)cc3Cl)c2c1 [Compound 101, 3-(2,4-dichlorobenzyl)-5-(1-pentanesulfonylcarbamoyl)-2-propylindole] | 168 to 169 °C
Cc1[nH]c2ccc(C(=O)NS(=O)(=O)CCC(C)C)cc2c1Cc1ccc(Cl)cc1Cl [Compound 98, 3-(2,4-dichlorobenzyl)-2-methyl-5-(3-methyl-1-butanesulfonylcarbamoyl)indole] | 167 to 169 °C
CCCCCS(=O)(=O)NC(=O)c1ccc2[nH]c(C)c(Cc3ccccc3Cl)c2c1 [Compound 96, 3-(2-chlorobenzyl)-2-methyl-5-(1-pentanesulfonylcarbamoyl)indole] | 175 to 177 °C
CCCCS(=O)(=O)NC(=O)c1ccc2[nH]c(C)c(C(=O)c3ccc(Cl)cc3Cl)c2c1 [Compound 97, 5-(1-butanesulfonylcarbamoyl)-3-(2,4-dichlorobenzoyl)-2-methylindole] | 241 to 243 °C
Cc1[nH]c2ccc(C(=O)NS(=O)(=O)C(F)(F)F)cc2c1Cc1ccc(Cl)cc1Cl [Compound 113, 3-(2,4-dichlorobenzyl)-2-methyl-5-(trifluoromethanesulfonylcarbamoyl)indole] | 201 to 205 °C
CCCCCCS(=O)(=O)NC(=O)c1ccc2[nH]c(C)c(Cc3ccc(Cl)cc3Cl)c2c1 [Compound 94, 3-(2,4-dichlorobenzyl)-5-(1-hexanesulfonylcarbamoyl)-2-methylindole] | 183 to 185 °C
